Laboratory results from patent US10603345B2, “Pharmaceutical composition for treating respiratory disease” (Kunming Institute of Botany, The Chinese Academy of Sciences, priority 2015, dated 2020).

What was measured:
Type in all cases: in vivo
[1] = system: white blood cell count and classification in BALF of COPD model mouse; assay: Effect on white blood cell count and classification in BALF of COPD model mouse; details: COPD mouse (LPS plus smoke exposure 30 days), ig 7 d, dose/kg: dexamethasone 1 mg, Test group 1 50, 2 25, 3 10, picrinine 10, vallesamine 6, scholaricine 7, 19-epi-scholaricine 2 mg, x ± SD
Procedure: (§1) Animal source: 25˜30 g male ICR mouse, from laboratory animal department of Kunming Medical University, License No. SCXK (Dian) 2011-0004.
(§2) Method and route: lipopolysaccharide (LPS) plus smoke exposure was used for 30 days to induce mouse chronic obstructive pulmonary disease model; and after intragastrical administration for 7 d at a dose of 20 mL/kg, the animal was sacrificed at the eighth day.
(§3) Picrinine group (10 mg/kg), Vallesamine group (6.0 mg/kg), Scholaricine group (7.0 mg/kg), 19-epischolaricine group (2.0 mg/kg).
(§4) Sample preparation: all the samples were prepared by using 0.5% carboxymethylcellulose sodium (0.5% CMC-Na).
Group and dose: in Test group 1, the ratio of picrinine, vallesamine, scholaricine and 19-epischolaricine by weight was 48:40:29:10, and the other groups and doses thereof were as described in Example 10.
Test index: total number of white blood cells and inflammatory cell classification in bronchoalveolar lavage fluid (BALF) were used as indexes, and were determined by full-automatic hemocytometer.

[2] = system: IL-6 in serum of COPD model mouse; assay: Effect on IL-6 in serum of COPD model mouse; details: ELISA, ig 7 d, dose/kg: dexamethasone 1 mg, Test group 1 50, 2 25, 3 10, picrinine 10, vallesamine 6, scholaricine 7, 19-epi-scholaricine 2 mg, x ± SD
Procedure: as §1, §2, §3, §4
Group and dose: in Test group 1, the ratio of picrinine, vallesamine, scholaricine and 19-epischolaricine by weight was 38:30:27:7, and the other groups and doses thereof were as described in Example 10.
Test index: IL-6 in serum was used as index, and was determined by enzyme linked immunosorbent assay.

[3] = system: SOD in serum and homogenate of COPD model mouse; assay: Effect on SOD in serum and homogenate of COPD model mouse; details: ig 7 d, dose/kg: dexamethasone 1 mg, Test group 1 50, 2 25, 3 10, picrinine 10, vallesamine 6, scholaricine 7, 19-epi-scholaricine 2 mg, x ± SD; for SOD homogenate: lung homogenate
Procedure: as §1, §2, §3, §4
Group and dose: in Test group 1, the ratio of picrinine, vallesamine, scholaricine and 19-epischolaricine by weight was 16:11:12:3, and the other groups and doses thereof were as described in Example 10.
Test index: SOD in serum and lung homogenate was used as index, and was determined by xanthine oxidase method.

[4] = system: MDA in serum and homogenate of COPD model mouse; assay: Effect on MDA in serum and homogenate of COPD model mouse; details: ig 7 d; for content of MDA (serum or homogenate not given): vallesamine 6, scholaricine 7, 19-epi-scholaricine 2 mg/kg; for MDA Homogenate: lung homogenate; for MDA Homogenate / MDA Serum: dose/kg: dexamethasone 1 mg, Test group 1 50, 2 25, 3 10, picrinine 10, vallesamine 6, scholaricine 7, 19-epi-scholaricine 2 mg, x ± SD
Procedure: as §1, §2, §3, §4
Group and dose: in Test group 1, the ratio of picrinine, vallesamine, scholaricine and 19-epischolaricine by weight was 9:6:5:1, and the other groups and doses thereof were as described in Example 10.
Test index: MDA in serum and homogenate was used as index, and was determined by thibabituric acid method.

[5] = system: Eotaxin in serum of asthma model mouse; assay: Effect on Eotaxin in serum of asthma model mouse; details: ELISA, ig 7 d, dose/kg: dexamethasone 2.0 mg, Test group 1 50, 2 25, picrinine 5.0, vallesamine 3.0, scholaricine 3.0, 19-epi-scholaricine 3.5 mg, x ± SD
Procedure: as §1
(§5) Method and route: ovalbumin (OVA) was used to induce mouse asthma model, and after intragastrical administration for 7 d at a dose of 20 mL/kg, the animal was sacrificed at the eighth day.
(§6) Test group 1: picrinine, vallesamine, scholaricine and 19-epischolaricine prepared in Example 1.7 were homogeneously mixed at different ratios by weight (50 mg/kg), Test group 2: the alkaloid composition prepared in Example 1.4 (25 mg/kg). […]
as §4
Group and dose: in Test group 1, the ratio of picrinine, vallesamine, scholaricine and 19-epischolaricine by weight was 37:42:30:8, and the other groups and doses thereof were as described in Example 11.
Test index: eosinophil chemotactic factor (Eotaxin) in serum was used as index, and was determined by enzyme linked immunosorbent assay.

[6] = system: IgE in serum of asthma model mouse; assay: Effect on IgE in serum of asthma model mouse; details: ELISA, ig 7 d, dose/kg: dexamethasone 2.0 mg, Test group 1 50, 2 25, picrinine 5.0, vallesamine 3.0, scholaricine 3.0, 19-epi-scholaricine 3.5 mg, x ± SD
Procedure: as §1, §5, §6, §4
Group and dose: In Test group 1, the ratio of picrinine, vallesamine, scholaricine and 19-epischolaricine by weight was 30:33:27:6, and the other groups and doses thereof were as described in Example 11.
Test index: immunoglobulin IgE in serum was used as index, and was determined by enzyme linked immunosorbent assay.

[7] = system: IL-4 in BALF of asthma model mouse; assay: Effect on IL-4 in BALF of asthma model mouse; details: ELISA, ig 7 d, dose/kg: dexamethasone 2.0 mg, Test group 1 50, 2 25, picrinine 5.0, vallesamine 3.0, scholaricine 3.0, 19-epi-scholaricine 3.5 mg, x ± SD
Procedure: as §1, §5, §6, §4
Group and dose: in Test group 1, the ratio of picrinine, vallesamine, scholaricine and 19-epischolaricine by weight was 25:18:15:3, and the other groups and doses thereof were as described in Example 11. […]

[8] = system: SOD in serum and BALF of asthma model mouse; assay: Effect on SOD in serum and BALF of asthma model mouse; details: ig 7 d, dose/kg: dexamethasone 2.0 mg, Test group 1 50, 2 25, picrinine 5.0, vallesamine 3.0, scholaricine 3.0, 19-epi-scholaricine 3.5 mg, x ± SD; for SOD lavage fluid: BALF
Procedure: as §1, §5, §6, §4
Group and dose: in Test group 1, the ratio of picrinine, vallesamine, scholaricine and 19-epischolaricine by weight was 12:10:9:2, and the other groups and doses thereof were as described in Example 11.
Test index: SOD in serum and BALF was used as index, and was determined by xanthine oxidase method.

[9] = system: MDA in serum and BALF of asthma model mouse; assay: Effect on MDA in serum and BALF of asthma model mouse; details: ig 7 d, dose/kg: dexamethasone 2.0 mg, Test group 1 50, 2 25, picrinine 5.0, vallesamine 3.0, scholaricine 3.0, 19-epi-scholaricine 3.5 mg, x ± SD; for MDA lavage fluid: BALF
Procedure: as §1, §5, §6, §4
Group and dose: in Test group 1, the ratio of picrinine, vallesamine, scholaricine and 19-epischolaricine by weight was 8:6:5:1, and the other groups and doses thereof were as described in Example 11.
Test index: MDA in serum and BALF was used as index, and was determined by thiobarbituric acid method.

SMILES | Leukocyte number [1] | IL-6 [2] [pg/mL] | SOD homogenate [3] [U/mL] | content of MDA (serum or homogenate not given) [4] | MDA Homogenate [4] [nmol/mL] | MDA Serum [4] [nmol/mL] | Eotaxin [5] [pg/mL] | IgE [6] [µg/mL] | IL-4 [7] [pg/mL] | SOD lavage fluid [8] [U/mL] | SOD Serum [8] [U/mL] | MDA lavage fluid [9] [nmol/mL] | MDA Serum [9] [nmol/mL] | SOD Serum [3] [U/mL] | Neutrophil number [1]
COC(=O)C1=C2Nc3c(O)cccc3[C@@]23CCN2C[C@@H]([C@H](C)O)[C@@H]1C[C@H]23 [19-epi-scholaricine, 19-epischolaricine] | 2.0 ± 1.6 ×10^5/mL | 23.3 ± 4.1 | 61.32 ± 9.35 | significantly decrease | 6.03 ± 0.66 | 10.94 ± 1.67 | 8.74 ± 1.40 | 3.55 ± 0.87 | 11.16 ± 3.58 | 71.82 ± 12.39 | 73.85 ± 7.93 | 2.55 ± 1.47 | 13.55 ± 4.66 |  | 
C/C=C1/CN2[C@@H]3C[C@@]45c6ccccc6N[C@]4(O3)[C@@H]2C[C@@H]1[C@H]5C(=O)OC [picrinine] | 2.1 ± 1.8 ×10^5/mL | 23.9 ± 3.9 | 56.01 ± 12.78 |  | 6.17 ± 1.46 | 11.21 ± 4.46 | 9.03 ± 1.80 | 3.85 ± 0.72 | 12.60 ± 4.39 | 62.32 ± 8.22 | 70.31 ± 7.30 | 3.29 ± 2.07 | 14.03 ± 5.71 | 91.15 ± 10.90 | 
C/C=C1/CN2CC[C@@H]1[C@@](CO)(C(=O)OC)c1[nH]c3ccccc3c1C2 [vallesamine] | 1.8 ± 1.7 ×10^5/mL | 25.0 ± 3.6 | 58.43 ± 5.73 | significantly decrease | 7.12 ± 1.44 | 11.07 ± 1.29 | 8.90 ± 2.36 | 3.57 ± 0.99 | 11.61 ± 2.40 | 70.88 ± 8.52 | 70.53 ± 7.77 | 2.92 ± 1.48 | 13.36 ± 6.10 | 91.72 ± 12.34 | 0.75 ± 0.51 ×10^5/mL
